Source: patent US7691563B2, “Method for alleviating pain using sphingosine-1-phosphate and related compounds, and assays for identifying such compounds” (Sanofi-Aventis Pharma GmbH, priority 2003, dated 2010)
Where “and” joins values, the source holds several entries; their conditions need not be identical. Equal entries are not always repeated.

Legend:
Type in all cases: cell-based, human
cAMP = cAMP accumulation in HeLa cells; details: 0.5 μM S1P
Experimental: Panel A: cAMP accumulation in HeLa cells was measured in the absence and presence of serum as described above. The mean ±SEM (Standard error of the mean) of three determinations is shown. Panel A: cAMP accumulation in HeLa cells was measured in the absence (black bars) and presence (grey bars) of 0.5 μM S1P at varying times as described in Materials and Methods section. The mean ±SEM of three determinations is shown. Spinal cord samples were sonicated and centrifugeged at 4° C. for 20 minutes with 18.000×g. The supernatent was used for cAMP measurements. The cAMP accumulation in the cells was determined by the cAMP Detection Kit (Assay Design Inc, Ann Arbor, Mich.) according to the manufacturers instructions.

ERK1/2 = ERK1/2 phosphorylation in HeLa cells (Western blot); details: HeLa cells incubated with S1P; anti-active ERK and anti-phosphoTyr183 ERK antibodies
Experimental: Panel C: Western Blot analysis of HeLa cells treated with 0.5 μM S1P for 10 minutes. Prior incubation with S1P the cells were incubated for 20 minutes with 10 μM U73122, BAPTA-AM or U0126. Cells were harvested in boiling Laemmli buffer and subjected to Western analyses using anti-active ERK1/2 antibody. Anti-Hsp70 antibody was used as loading control.

PAM = PAM translocation to the plasma membrane in HeLa cells (immunofluorescence)
Experimental: Panel B: HeLa cells were treated with 10% fetal bovine serum for different times and stained with anti-PAM antibodies to monitor the subcellular localization.
Panel B: HeLa cells were treated with 0.5 μM S1P for 30 minutes and stained with anti-PAM antibodies to monitor the subcellular localization.
Panel C: Time dependence of PAM translocation in HeLa cells. Serum-starved HeLa cells were treated with 0.5 μM S1P for different times and stained with anti-PAM antibodies to monitor the subcellular localization.
Panel D: HeLa cells were treated with 0.5 μM S1P for 20 minutes and stained with anti-PAM antibodies to monitor the subcellular localization. Prior S1P-treatment were the cells incubated for 24 hours with […] pertussis toxin (PTX), for 20 minutes with, 1 μM GF109203X, 10 μM U0126, BAPTA-AM, U73122 or Ro31-223.
To monitor distribution of PAM in HeLa cells, cells were grown on glass coverslips in DMEM with 10% FBS and 1% penicillin/streptoMycin (Gibco, Karlsruhe, Germany). To visualize translocation of PAM HeLa, cells were serum starved overnight and subsequently treated with 10% serum for 2 hours. Wherever indicated, cells were preincubated for 30 minutes in the presence of different concentrations of inhibitors. The cells were fixed in 4% paraformaldehyde (Sigma, Taufkirchen, Germany) in PBS for 10 minutes and then permeablized in 0.1% Triton X-100 for another 5 minutes. The coverslips were blocked for 1 hour in 3% BSA in PBS and then incubated for 1 hour with anti-PAM antibody (1:50 dilution). This was followed by incubation with FITC-labeled goat anti-rabbit antibody in PBS containing 3% BSA. The cells were then washed with PBS and mounted. For the analysis confocal (BioRad, Hercules, Calif.) and regular flourescence microscopes (Nikon, Duesseldorf, Germany) were used.

HeLa cells = assay: Calcium imaging in HeLa cells

For `CCCCCCCCCCCCC/C=C/[C@@H](O)[C@@H](N)COP(=O)(O)O` [S1P, Sphingosine-1-Phosphate], the “intracellular cAMP content” value (cAMP) was “reduced”, the ERK1/2 phosphorylation (ERK1/2) was “detectable” and the “PAM translocation among candidate substances for the serum factor” value (PAM; HeLa cells) was “induced PAM translocation”. For the same compound, the “cells with PAM translocation to the plasma membrane” value (PAM; HeLa cells treated with 0.1-5 μM S1P) was 70-90% and 80%, the “time at which PAM appeared at the plasma membrane” value (PAM; HeLa cells, 500 nM S1P) was 10 min and the “time at which PAM started to disappear from the plasma membrane” value (PAM; HeLa cells, 500 nM S1P) was 1 h. The “time of PAM translocation to the plasma membrane” value (PAM; HeLa cells, 0.1-5 μM S1P) was 10 to 30 min and the intracellular calcium (HeLa cells) was “induced a PLC-dependent calcium increase”.
